Measured values published in US20140357512A1, “HISTONE DEACETYLASE (HDAC) BIOMARKERS IN MULTIPLE MYELOMA” (priority 2013, published 2014).

Test system: human myeloma cell line MM.1S
Experiment: SILAC acetylated-lysine peptide profiling, HDAC inhibitor vs DMSO (light/heavy ratio)
Assay type: cell-based
Source text: An embodiment of the invention comprises utilizing the SILAC method in order to quantitate changes in protein expression between two or more populations of cells. The SILAC method is a technique based on mass spectrometry that detects differences in protein abundance among samples using non-radioactive isotopic labeling. The SILAC method is known in the art, and described in detail in Ong et al., “Stable Isotope Labeling by Amino Acids in Cell Culture, SILAC, as a Simple and Accurate Approach to Expression Proteomics”, Molecular & Cellular Proteomics, vol. 1, pp. 376-386 (2002), which is incorporated herein by reference in its entirety.
Briefly, the SILAC method involves growing two populations of cells in cell culture. The first population of cells is grown in growth media containing normal amino acids (“normal media”). The second population of cells is grown in media lacking a standard essential amino acid (such as lysine), but is then supplemented with a non-radioactive, isotopically labeled form of that essential amino acid (such as lysine labeled with ^13C atoms, rather than normal ^12C atoms), which is called “heavy media”. When the two populations of cells are each growing in the medium, they incorporate the amino acids into all of their proteins. The growth of cells maintained in the heavy media is no different from that in normal media. All peptides containing the heavy amino acids are heavier than their normal counterparts. The cells from each of the two populations of cells are lysed. The lysates from each of the two cell populations are then combined. The combined cell lysates are then analyzed by mass spectrometry. Pairs of chemically identical peptides of different stable isotope composition can be differentiated in a mass spectrometer due to their difference in mass. The ratio of peak intensities in the mass spectrum for such peptide pairs reflects the abundance ratio for the two proteins.
This example describes SILAC studies that were performed to compare the effects of three different HDAC inhibitors (Compound A, Compound B, and tubastatin A) to a control on a human multiple myeloma cell line. The HDAC inhibitors were also compared amongst themselves to determine differences in their effects.
A human myeloma cell line MM.1S was grown using either ^12C (light) or ^13C (heavy) lysine containing culture medium. The “heavy” cells were treated with DMSO as the control, and the “light” cells were treated with a single HDAC inhibitor at 37° C. for 6 hours. The heavy and light cells were lysed, and the lysates were mixed in 1:1 ratio and digested with the protease trypsin. The acetylated lysine containing peptides (due to the action of the HDAC inhibitor) in the digested peptide pool were captured by a non-specific anti-acetylated lysine antibody cocktail (the antibodies identify both light and heavy acetylated peptides), and subjected to mass spectrometry analysis in order to identify thousands of individual peptides.
Thousands of peptides were identified in pairs (^12C and ^13C) due to their known mass differences. The amino acid sequence and quantitative ratio (Light/Heavy) of a given peptide in two differentially treated cell lysates were then determined and annotated with their possible protein (gene) sources.
As stated above, three HDAC inhibitors (Compound A, Compound B, and Tubastatin A) were used. Thus, the SILAC method was performed three times, with a different HDAC inhibitor compared to a control each time. Accordingly, there are three pairs of quantitative data in the table below, i.e., Compound A:DMSO, Compound B:DMSO, and Tubastatin A:DMSO. A cut-off of 1.30 fold of change (increase or decrease) was then used to determine “changed” or “+” in the table, and any peptides with a fold of change less than 1.3 fold were determined to be “unchanged” or “0” in the table. Those peptides that were not identified were marked as “NA” in the table. […]

O=C(NO)c1cnc(NC2(c3cccc(F)c3)CCCCC2)nc1 [Compound B, 2-((1-(3-fluorophenyl)cyclohexyl)amino)-N-hydroxypyrimidine-5-carboxamide]
L/H ratio of acetylated peptide […](ac)SHR (SEQ ID NO: 56) (IGLV2-14, IGLC2 [208], log 2 scale, drug vs DMSO): 0.00 | light to heavy ratio (L/H ratio) of acetylated peptide, log 2 scale (IGQGYLIK(ac)DGK (SEQ ID NO: 249), 60S ribosomal protein L3 [294], SNORD43, RPL3): 0.00 | L/H ratio of acetylated peptide (IIWHK(ac)FK (SEQ ID NO: 419), Isoform 1 of 39S ribosomal protein L47 mitochondrial [180], MRPL47): −0.73 log 2 | light to heavy ratio (L/H ratio) of acetylated peptide, log 2 scale (IMK(ac)DLDQCR (SEQ ID NO: 217), Protein S100-A10 [57], S100A10): 0.00 | L/H ratio of acetylated peptide (IMK(ac)SEVLR (SEQ ID NO: 434), 26S protease regulatory subunit 6A [56], PSMC3): 0.41 log 2 | L/H ratio of acetylated peptide (IMQK(ac)YGFR (SEQ ID NO: 440), Splicing factor 45 [245], RBM17): −0.50 log 2 | light to heavy ratio (L/H ratio) of acetylated peptide, log 2 scale (IQDK(ac)EGIPPDQQR (SEQ ID NO: 212), Ubiquitin-40S ribosomal protein S27a [33], RPS27A): 0.00 | L/H ratio of acetylated peptide (IQFK(ac)QDDGTGPEK (SEQ ID NO: 412), Isoform 1 of Far upstream element-binding protein 2 [359], KHSRP): 0.61 log 2 | light to heavy ratio (L/H ratio) of acetylated peptide, log 2 scale (ISK(ac)EVLAGR (SEQ ID NO: 167), Isoform Short of Heterogeneous nuclear ribonucleoprotein U [417], HNRNPU): 0.00 | L/H ratio of acetylated peptide (IYHPNVDK(ac)LGR (SEQ ID NO: 462), Ubiquitin-conjugating enzyme E2 N [82], UBE2N): −0.70 log 2 | light to heavy ratio (L/H ratio), log 2 scale, acetylated peptide LMK(ac)ICMNEDPAK (SEQ ID NO: 800) (Integrin-linked protein kinase [426], gene ILK, drug:DMSO): 0.00 | light to heavy ratio (L/H ratio) of acetylated peptide HAHGDQYK(ac)ATDFVADR (SEQ ID NO: 574) (Isocitrate dehydrogenase [NADP] mitochondrial [180], gene IDH2, inhibitor:DMSO): 0.00 log 2 | light to heavy ratio (L/H ratio) of acetylated peptide AGTFK(ac)MVFTPK (SEQ ID NO: 606) (Isocitrate dehydrogenase [NADP] mitochondrial [193], gene IDH2, inhibitor:DMSO): 0.00 log 2 | light to heavy ratio (L/H ratio) of acetylated peptide TDFDKNK(ac)IWYEHR (SEQ ID NO: 555) (Isocitrate dehydrogenase [NADP] mitochondrial [282], gene IDH2, inhibitor:DMSO): 0.00 log 2 | light to heavy ratio (L/H ratio) of acetylated peptide AVLIDK(ac)DQSPK (SEQ ID NO: 577) (Isoform 1 of 3-hydroxyisobutyryl-CoA hydrolase mitochondrial [353], gene HIBCH, inhibitor:DMSO): 0.00 log 2 | light to heavy ratio (L/H ratio) of acetylated peptide […](ac)VVQER (SEQ ID NO: 318) (Isoform 1 of 39S ribosomal protein L47 mitochondrial [144], MRPL47, drug:DMSO): 0.00 log 2 | light to heavy ratio (L/H ratio) of acetylated peptide ATVPK(ac)TEIR (SEQ ID NO: 272) (Isoform 1 of 40S ribosomal protein S24 [37], RPS24, drug:DMSO): 0.00 log 2 | light to heavy ratio (L/H ratio) of acetylated peptide ISK(ac)EEAMR (SEQ ID NO: 299) (Isoform 1 of 60S ribosomal protein L11 [159], RPL11, drug:DMSO): 0.00 log 2 | light to heavy ratio (L/H ratio) of acetylated peptide RPEILK(ac)QEIK (SEQ ID NO: 359) (Isoform 1 of AP-2 complex subunit beta [318], AP2B1, drug:DMSO): 0.57 log 2 | light to heavy ratio (L/H ratio) of acetylated peptide […](ac)ANVAK (SEQ ID NO: 364) (Isoform 1 of ATP synthase subunit d mitochondrial [58], ATP5H, drug:DMSO): 0.48 log 2 | light to heavy ratio (L/H ratio) of acetylated peptide VPVPEDK(ac)[…] (SEQ ID NO: 290) (Isoform 1 of ATP synthase subunit d mitochondrial [85], ATP5H, drug:DMSO): 0.00 log 2 | light to heavy ratio (L/H ratio) of acetylated peptide GHCPPAPAK(ac)PMHPENK(ac)LTNHGK (SEQ ID NO: 366) (Isoform 1 of B-cell CLL/lymphoma 9-like protein [36:43], BCL9L, drug:DMSO): 0.63 log 2 | light to heavy ratio (L/H ratio) of acetylated peptide VWNYK(ac)LR (SEQ ID NO: 593) (Isoform 1 of Coatomer subunit alpha [81], gene COPA, inhibitor:DMSO): 0.00 log 2 | light to heavy ratio (L/H ratio) of acetylated peptide SLLK(ac)PFCAALLK (SEQ ID NO: 329) (Isoform 1 of Cytoskeleton-associated protein 5 [438], CKAP5, drug:DMSO): 0.48 log 2 | light to heavy ratio (L/H ratio) of acetylated peptide ELEK(ac)VCNPIITK (SEQ ID NO: 612) (Isoform 1 of Heat shock cognate 71 kDa protein [601], gene HSPA8, inhibitor:DMSO): 0.00 log 2 | light to heavy ratio (L/H ratio) of acetylated peptide DVSYQGGK(ac)SIK (SEQ ID NO: 571) (Isoform 1 of Histone-lysine N-methyltransferase MLL3 [758], gene MLL3, inhibitor:DMSO): 0.00 log 2 | light to heavy ratio (L/H ratio) of acetylated peptide TLVLSDK(ac)HSPQK (SEQ ID NO: 523) (Isoform 1 of Histone-lysine N-methyltransferase MLL3 [2809], gene MLL3, inhibitor:DMSO): 0.00 log 2 | light to heavy ratio (L/H ratio) of acetylated peptide LVAENK(ac)FGK (SEQ ID NO: 296) (Isoform 1 of Hydroxyacyl-coenzyme A dehydrogenase mitochondrial [301], HADH, drug:DMSO): 0.00 log 2 | light to heavy ratio (L/H ratio) of acetylated peptide K(ac)[…] (SEQ ID NO: 316) (Isoform 1 of L-lactate dehydrogenase A chain [318], LDHA, drug:DMSO): 0.00 log 2 | light to heavy ratio (L/H ratio) of acetylated peptide INK(ac)ALDK (SEQ ID NO: 344) (Isoform 1 of Myosin-9 [435], MYH9, drug:DMSO): 0.43 log 2 | light to heavy ratio (L/H ratio) of acetylated peptide FYK(ac)[…] (SEQ ID NO: 596) (Isoform 1 of N-alpha-acetyltransferase 50 NatE catalytic subunit [37], gene NAA50, inhibitor:DMSO): 0.00 log 2 | light to heavy ratio (L/H ratio), log 2 scale, acetylated peptide […](ac)SK (SEQ ID NO: 767) (Isoform 1 of Peripherin [288], gene PRPH, drug:DMSO): 0.00
